Test results taken from the NIST ThermoML archive (doi:10.1016/j.jct.2017.08.006).
± gives the expanded uncertainty stated by the source.

Key:
[1] = Boiling temperature at pressure P; conditions: Liquid, Ebulliometric method (Recirculating still)
[2] = refractive index (Na D-line) (dimensionless); conditions: 101.33 kPa, Liquid, Standard Abbe refractometry
[3] = Liquid; for mass density: 293.15 K, 101.33 kPa, Pycnometric method

Row | SMILES | Boiling temperature at pressure P ([1]; 5.01 kPa) [°C] | Boiling temperature at pressure P ([1]; 9.98 kPa) [°C] | Boiling temperature at pressure P ([1]; 14.69 kPa) [°C] | Boiling temperature at pressure P ([1]; 19.75 kPa) [°C] | Boiling temperature at pressure P ([1]; 26.67 kPa) [°C] | Boiling temperature at pressure P ([1]; 40.02 kPa) [°C] | Boiling temperature at pressure P ([1]; 53.72 kPa) [°C] | Boiling temperature at pressure P ([1]; 65.01 kPa) [°C] | Boiling temperature at pressure P ([1]; 79.21 kPa) [°C] | Boiling temperature at pressure P ([1]; 90 kPa) [°C] | Boiling temperature at pressure P ([1]; 101.33 kPa) [°C] | Boiling temperature at pressure P ([1]; 116.34 kPa) [°C] | Boiling temperature at pressure P ([1]; 120 kPa) [°C] | Boiling temperature at pressure P ([1]; 125.01 kPa) [°C] | Boiling temperature at pressure P ([1]; 130 kPa) [°C] | refractive index ([2]; 293.15 K) | refractive index ([2]; 298.15 K) | mass density [3] [kg/m3] | vapor or sublimation pressure ([3]; 381.1 K, Ebulliometric method (Recirculating still)) [kPa]
1 | COCOCC(C)C [1-(methoxymethoxy)-2-methylpropane] | 33.5 ± 0.18 | 47 ± 0.16 | 55.23 ± 0.13 | 62.17 ± 0.12 | 69.60 ± 0.11 | 80.57 ± 0.11 | 89.19 ± 0.11 | 95.2 ± 0.1 | 101.51 ± 0.1 | 105.86 ± 0.1 | 109.98 ± 0.1 | 115.03 ± 0.1 | 116.21 ± 0.1 | 117.72 ± 0.1 | 119.27 ± 0.1 | 1.385 ± 0.0007 | 1.3827 ± 0.0007 | 832.5 ± 1 | –
2 | CC(C)CO [2-methyl-1-propanol] | – | – | – | – | – | – | – | – | – | – | – | – | – | – | – | – | 1.3939 ± 0.0007 | 801.8 ± 1 | 101.33 ± 0.51
3 | CCCCO [butan-1-ol] | – | – | – | – | – | – | – | – | – | – | – | – | – | – | – | – | 1.3971 ± 0.0007 | 809.5 ± 1 | –
